Reference: ChEMBL document CHEMBL4613239, “α-Glucosidase and Protein Tyrosine Phosphatase 1B Inhibitors from Malbranchea circinata” (J Nat Prod, 2020)
The source made the active and inactive calls. The rule behind the calls is not given here.

Experiments:
[1] = Inhibition of Saccharomyces cerevisiae alpha-glucosidase using pNPG as substrate preincubated for 10 mins followed by substrate addition after 20 mins
[2] = target: T1, Tyrosine-protein phosphatase non-receptor type 1 (Homo sapiens) (UniProt P18031); assay: (§1) Inhibition of human PTP1B expressed in Escherichia coli BL21 (DE3) cells using PNPP as substate preincubated for 5 mins followed by substrate additon and measured after 15 mins
T1 sequence (whole entry): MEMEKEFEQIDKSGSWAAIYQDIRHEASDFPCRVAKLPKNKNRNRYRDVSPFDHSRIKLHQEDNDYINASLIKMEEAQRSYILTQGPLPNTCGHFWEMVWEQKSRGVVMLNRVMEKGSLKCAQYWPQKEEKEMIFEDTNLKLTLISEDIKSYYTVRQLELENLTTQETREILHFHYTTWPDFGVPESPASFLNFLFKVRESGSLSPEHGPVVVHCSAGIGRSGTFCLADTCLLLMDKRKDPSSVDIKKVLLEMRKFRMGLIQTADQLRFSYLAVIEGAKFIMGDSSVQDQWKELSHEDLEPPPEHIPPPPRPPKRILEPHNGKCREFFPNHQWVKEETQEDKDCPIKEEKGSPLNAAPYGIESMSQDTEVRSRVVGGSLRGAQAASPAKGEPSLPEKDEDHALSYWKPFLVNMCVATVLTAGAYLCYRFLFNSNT

[3] = Inhibition of rat intestinal rat alpha-glucosidase
[4] = target: T2, Tyrosine-protein phosphatase non-receptor type 1 (Homo sapiens, UniProt P18031); assay: as §1
T2 sequence (P18031 whole entry): T1 sequence (whole entry)

Mus musculus = assay: Induction of hypo glycemic activity in ICR mouse assessed as reduction in postprandial glucose level at 10 mg/kg, po pretreated for 30 mins followed by sucrose treatment and measured after 30 to 120 mins; format: functional, organism-based

SMILES | IC50 [1] [µM] | inhibition [2] | IC50 [3] [µM] | IC50 [4] [µM] | Activity (Mus musculus)
C=CC(C)(C)[C@@]12C[C@@H]3C(=O)N4[C@H](C[C@@]5(C(C)(C)C=C)c6ccccc6N[C@@H]45)C(=O)N3[C@@H]1Nc1ccccc12 | 57.4 | – | 743 | 15.3 | –
CC1(C)c2[nH]c3cc(Cl)c(Cl)cc3c2C[C@@]23CN4CCC[C@]4(C[C@@H]12)C(=O)N3 | 71.3 | – | 459 | 14.5 | Active
C[C@H]1O[C@H](O[C@H]2[C@H](O)[C@@H](O)[C@@H](O[C@H]3[C@H](O)[C@@H](O)C(O)O[C@@H]3CO)O[C@@H]2CO)[C@H](O)[C@@H](O)[C@@H]1N[C@H]1C=C(CO)[C@@H](O)[C@H](O)[C@H]1O (stereo partly specified) [ACARBOSE] | 586 | – | 151 | – | Active
O=C1Nc2ccccc2-c2nc3ccccc3c(=O)n2-c2ccccc21 | 144 | Active | – | – | –
O=C1Nc2ccccc2-c2nc3ccccc3c(=O)n2-c2c(O)cccc21 | 117 | Active | – | – | –

Further lines, with some results ahead:

IC50 [1] [µM] | inhibition [2] | IC50 [3] [µM] | IC50 [4] [µM] | SMILES | Activity (Mus musculus)
261 | Active | – | – | Cc1cc(O)c2c(c1)C(=O)c1cc(O[C@H]3O[C@H](CO)[C@@H](O)[C@H]3O)cc(O)c1C2=O | –
– | Active | – | – | CC(=O)OC[C@H]1O[C@H](Oc2cc(O)c3c(c2)C(=O)c2cc(C)cc(O)c2C3=O)[C@H](OC(C)=O)[C@@H]1OC(C)=O | –
– | Active | – | – | CC(=O)O[C@H]1[C@@H](Oc2cc(O)c3c(c2)C(=O)c2cc(C)cc(O)c2C3=O)O[C@H](CO)[C@H]1OC(C)=O | –
– | Active | – | – | CC(=O)O[C@H]1[C@@H](O)[C@@H](Oc2cccc3c2C(=O)c2c(O)cc(C)cc2C3=O)O[C@@H]1CO | –
– | – | – | 10.9 | COC1CCC(=O)c2c(O)c(-c3cc(O)c4c(c3O)C(=O)CCC4OC)cc(O)c21 (stereo unspecified) | –
– | – | – | 13.9 | CC(C)=CCc1ccc(O)c2c(=O)c3c(O)cc(C)c(O)c3oc12 | –
